# Source: patent US8486991B2, “Enantiomerically pure phosphoindoles as HIV inhibitors” (Idenix Pharmaceuticals, Inc., priority 2006, dated 2013)
# Read-outs that look alike come from different tables or passages of the source.
# Columns and labels:
# [1] = target: T1, CYP1A2 (Homo sapiens, UniProt P05177); test: Recombinant CYP450 inhibition, fluorometric, CYP1A2; assay type: in vitro ADME; design: from tissue; host or cells: pooled human liver microsomes
# T1 sequence (P05177 1-516): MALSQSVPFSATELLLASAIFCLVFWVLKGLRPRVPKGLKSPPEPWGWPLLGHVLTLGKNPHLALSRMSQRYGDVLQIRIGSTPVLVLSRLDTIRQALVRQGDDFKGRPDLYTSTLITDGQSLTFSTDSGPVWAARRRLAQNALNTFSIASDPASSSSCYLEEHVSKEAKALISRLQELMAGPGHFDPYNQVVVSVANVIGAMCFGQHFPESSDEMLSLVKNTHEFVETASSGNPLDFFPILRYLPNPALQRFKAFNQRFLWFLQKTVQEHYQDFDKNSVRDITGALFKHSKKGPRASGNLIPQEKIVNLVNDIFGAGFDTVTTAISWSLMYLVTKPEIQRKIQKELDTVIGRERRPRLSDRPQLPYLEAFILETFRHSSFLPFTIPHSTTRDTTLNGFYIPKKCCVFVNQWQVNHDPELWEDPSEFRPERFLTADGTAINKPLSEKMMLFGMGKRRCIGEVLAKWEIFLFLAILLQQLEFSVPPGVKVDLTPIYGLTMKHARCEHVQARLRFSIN
# Protocol: (§1) Compounds were assayed using recombinant human microsomal proteins with fluorometric substrates. Signal was measured with a Fusion plate reader utilizing the appropriate excitation and emission wavelength set to detect the specific metabolite: […]
# [2] = target: CYP3A4 (Homo sapiens, UniProt P08684); test: Human liver microsomal CYP450 inhibition, CYP3A4; conditions: for Ki / Type of inhibition, CYP3A4 (Midazolam) / Type of inhibition, CYP3A4 (Testosterone) / kinact: human liver microsomes; for IC50: pooled human liver microsomes, probe midazolam and testosterone; for type of inhibition of CYP3A4: text b965, substrate not stated
# Sequence of CYP3A4 (P08684 whole entry): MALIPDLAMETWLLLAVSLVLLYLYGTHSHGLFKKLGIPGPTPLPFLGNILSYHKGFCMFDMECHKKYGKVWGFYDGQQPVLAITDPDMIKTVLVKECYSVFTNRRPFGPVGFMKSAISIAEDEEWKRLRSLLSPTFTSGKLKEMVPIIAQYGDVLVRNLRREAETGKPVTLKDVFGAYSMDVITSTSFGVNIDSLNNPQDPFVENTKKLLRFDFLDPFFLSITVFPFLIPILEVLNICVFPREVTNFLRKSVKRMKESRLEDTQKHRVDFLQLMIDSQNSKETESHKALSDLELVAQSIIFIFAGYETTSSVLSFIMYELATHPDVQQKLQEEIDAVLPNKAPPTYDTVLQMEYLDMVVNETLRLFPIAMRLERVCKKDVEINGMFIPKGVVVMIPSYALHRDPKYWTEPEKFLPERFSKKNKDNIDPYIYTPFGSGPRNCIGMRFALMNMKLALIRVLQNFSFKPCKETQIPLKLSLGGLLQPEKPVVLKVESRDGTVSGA
# [3] = target: T2, HIV-1 RT L1001 (L100I) mutant enzyme (Human immunodeficiency virus type 1 group M subtype B, UniProt P03366, L699I); test: biochemical; conditions: for Average Fold Changes ± Standard Deviation, L1001: Table 4
# T2 construct: Antiviral in vitro activity against site-directed mutant HIV-1 RT enzymes
# Description: (§2) In Vitro Antiviral Activity Against Additional Mutant HIV RT Enzymes
# (§3) The studies are summarized in the text that follows.
# [4] = target: T3, HIV-1 RT V106M mutant enzyme (Human immunodeficiency virus type 1 group M subtype B, UniProt P03366, V705M); test: biochemical; conditions: for Average Fold Changes ± Standard Deviation, V106M: Table 4
# T3 construct: Antiviral in vitro activity against site-directed mutant HIV-1 RT enzymes
# Description: as §2, §3
# [5] = target: T4, HIV-1 RT V1081 (V108I) mutant enzyme (Human immunodeficiency virus type 1 group M subtype B, UniProt P03366, V707I); test: biochemical; conditions: for Average Fold Changes ± Standard Deviation, V1081: Table 4
# T4 construct: Antiviral in vitro activity against site-directed mutant HIV-1 RT enzymes
# Description: as §2, §3
# [6] = target: T5, HIV-1 RT Y188L mutant enzyme (Human immunodeficiency virus type 1 group M subtype B, UniProt P03366, Y787L); test: biochemical; conditions: for Average Fold Changes ± Standard Deviation, Y188L: Table 4
# T5 construct: Antiviral in vitro activity against site-directed mutant HIV-1 RT enzymes
# Description: as §2, §3
# [7] = target: T6, HIV-1 RT M184V mutant enzyme (Human immunodeficiency virus type 1 group M subtype B, UniProt P03366, M783V); test: biochemical; conditions: for Average Fold Changes ± Standard Deviation, M184V: Table 4
# T6 construct: Antiviral in vitro activity against site-directed mutant HIV-1 RT enzymes
# Description: as §2, §3
# [8] = target: T7, HIV-1 RT L1001/K103N (L100I/K103N) mutant enzyme (Human immunodeficiency virus type 1 group M subtype B, UniProt P03366, K702N/L699I); test: biochemical; conditions: for Average Fold Changes ± Standard Deviation, L1001/K103N: Table 4
# T7 construct: Antiviral in vitro activity against site-directed mutant HIV-1 RT enzymes
# Description: as §2, §3
# [9] = target: T8, HIV-1 RT E138K mutant enzyme (Human immunodeficiency virus type 1 group M subtype B, UniProt P03366, E737K); test: biochemical; conditions: for Average Fold Changes ± Standard Deviation, E138K: Table 4
# T8 construct: Antiviral in vitro activity against site-directed mutant HIV-1 RT enzymes
# Description: as §2, §3
# [10] = Plasma protein binding by equilibrium dialysis, dog; assay type: in vitro ADME; conditions: for fraction unbound: dog, read-out: Percentage Plasma Protein Binding, Dogs
# Protocol: The in vitro plasma protein binding of compound I and compound III in rat, dog, monkey and human plasma was determined by equilibrium dialysis. Protein binding was assessed by equilibrium dialysis using rat, dog, monkey and human plasma. Samples were assayed by HPLC with LC-MS/MS detection. Plasma protein binding was high (>99%) for all species and for both compounds.
# [11] = test system: EFV resistant, NNRTI resistant, NRTI and PI mutant HIV-1 viruses; assay type: cell-based; conditions: for activity against EFV resistant viruses compared with EFV: including double and triple mutants
# [12] = target: CYP2D6 (Homo sapiens, UniProt P10635); test: Recombinant CYP450 inhibition, fluorometric, CYP2D6; assay type: in vitro ADME; design: from tissue; host or cells: pooled human liver microsomes; conditions: read-out: percentage of inhibition at the highest concentration tested, CYP2D6
# Sequence of CYP2D6 (P10635 whole entry): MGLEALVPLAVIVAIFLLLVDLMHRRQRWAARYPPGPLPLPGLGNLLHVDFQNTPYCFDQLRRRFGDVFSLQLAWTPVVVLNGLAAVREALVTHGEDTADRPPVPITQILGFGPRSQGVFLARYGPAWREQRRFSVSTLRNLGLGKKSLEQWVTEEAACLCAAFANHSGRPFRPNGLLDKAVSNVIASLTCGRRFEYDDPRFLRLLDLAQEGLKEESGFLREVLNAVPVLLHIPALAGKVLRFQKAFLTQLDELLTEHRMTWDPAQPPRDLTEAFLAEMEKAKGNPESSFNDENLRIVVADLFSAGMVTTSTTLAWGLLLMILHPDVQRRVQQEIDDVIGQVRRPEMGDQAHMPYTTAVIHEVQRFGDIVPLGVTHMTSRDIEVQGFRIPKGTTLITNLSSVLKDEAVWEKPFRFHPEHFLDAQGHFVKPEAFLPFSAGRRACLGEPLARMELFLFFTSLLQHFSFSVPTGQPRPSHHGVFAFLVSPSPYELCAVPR
# Protocol: as §1
# [13] = In vivo pharmacokinetics, dogs; conditions: both sexes, Dog; for Tmax: mean; for bioavailability: read-out: BA (absolute oral bioavailability)
# Protocol: All animals received a single oral or intravenous dose of compound in either polyethylene glycol 400 (PEG400) or a mixture of 10% ethanol (EtOH), 10% dimethylacetamine (DMA) and 80% PEG400 at the indicated dose level. Plasma concentration data were acquired using sensitive and specific LC-MS/MS methods. Pharmacokinetic data from the toxicity study included aspects of gender differences, variability and exposure.
# Blood samples (1.5-2.5 mL) were collected in heparinized tubes at 0 (pre-dose), 5 (IV only), 10, 20, 30 min, 1, 2, 4, 6, 8, 12 (PO only) and 24 hr after dosing. Plasma was separated and stored at −70° C. until analysis.
# Concentrations of unlabeled compound I and compound III within plasma samples and excreta from rat, dog and monkey PK studies were identified through high performance liquid chromatographic (HPLC) methods that incorporated tandem mass spectrometric detection (LC-MS/MS).
# The absolute oral bioavailability was determined in pharmacokinetic by comparison of AUC values of parent compound following single intravenous and oral doses of in rats (compound III only), dogs and monkeys.
# [14] = CYP3A4 (Testosterone), time dependent inhibition
# [15] = plasma, 20 mg/kg PO-Fed, 1M, 1F
Compound,"Ki [2, 14] [nM]","Type of inhibition, CYP3A4 (Midazolam) [2]","Type of inhibition, CYP3A4 (Testosterone) [2]","kinact ([2]; human, probe midazolam) [s⁻¹]","kinact ([2]; human, probe testosterone) [s⁻¹]",IC50 ([2]; human) [nM],type of inhibition of CYP3A4 [2],IC50 [3] [nM],"Average Fold Changes ± Standard Deviation, L1001 [3] [fold]",IC50 [4] [nM],"Average Fold Changes ± Standard Deviation, V106M [4] [fold]",IC50 [5] [nM],"Average Fold Changes ± Standard Deviation, V1081 [5] [fold]",IC50 [6] [nM],"Average Fold Changes ± Standard Deviation, Y188L [6] [fold]",IC50 [7] [nM],"Average Fold Changes ± Standard Deviation, M184V [7] [fold]",IC50 [8] [nM],"Average Fold Changes ± Standard Deviation, L1001/K103N [8] [fold]",IC50 [9] [nM],also measured
"CO[P@](=O)(c1cc(C)cc(/C=C/C#N)c1)c1c(C(N)=O)[nH]c2ccc(Cl)c(F)c12 [Compound I, (2-Carbamoyl-5-chloro-4-fluoro-1H-indol-3-yl)-[3-((E)-2-cyano-vinyl)-5-methyl-phenyl]-(R)-phosphinic acid methyl ester]",140,mechanism-based inhibition,mechanism-based inhibition,0.0012,0.00055,< 10000,mechanism based inhibition,160 ± 30,0.5 ± 0.2,230 ± 60,1.2 ± 0.5,1200 ± 710,4.0 ± 5.3,1250 ± 380,6.0 ± 1.7,290 ± 80,1.7 ± 0.5,430 ± 330,2.4 ± 1.2,4670 ± 910,"inhibition at 20 µM ([1]; human, recombinant enzyme, 20 μM, read-out: percentage of inhibition at the highest concentration tested, CYP1A2): 17.5%; Ki ([2]; human, 3A4, Example 18 table): 360 nM; Ki ([2]; human, probe midazolam, CYP3A4 (Midazolam), time dependent inhibition): 180 nM; Average Fold Changes ± Standard Deviation, E138K [9]: 15.5 ± 6.8 fold; Percentage Plasma Protein Binding, Dogs [10]: 99.0%; fraction unbound ([10]; plasma): < 0.01; activity against sub-panel of mutants bearing NRTI and PI mutations [11]: highly active; potency relative to Compound III against EFV resistant viruses with double and triple mutants [11]: 2-3; activity against EFV resistant viruses compared with EFV [11]: superior to EFV; inhibition at 10 µM ([12]; recombinant enzyme): 11.2%; Tmax ([13]; in vivo, 5 mg/kg PO-Fed, M+F): 0.3 h; bioavailability ([13]; in vivo, 5 mg/kg PO-Fed, M+F, IV 1 mg/kg): 9%"
"CO[P@](=O)(c1cc(C)cc(/C=C/C#N)c1)c1c(C(N)=O)[nH]c2ccc(Cl)cc12 [Compound III, (2-Carbamoyl-5-chloro-1H-indol-3-yl)-[3-((E)-2-cyano-vinyl)-5-methyl-phenyl]-(R)-phosphinic acid methyl ester]",210,mechanism-based inhibition,mechanism-based inhibition,0.001,0.000833,< 10000,mechanism based inhibition,130 ± 60,0.6 ± 0.6,200 ± 60,1.0 ± 0.3,830 ± 350,3.8 ± 3.8,1150 ± 360,7.0 ± 5.9,170 ± 80,0.8 ± 0.3,400 ± 260,1.8 ± 0.8,2990 ± 180,"IC50 ([1]; highest concentration tested 20 μM): 17600 ± 2060 nM; Ki ([2]; CYP3A4 (Midazolam), time dependent inhibition): 60 nM; Average Fold Changes ± Standard Deviation, E138K [9]: 13.7 ± 1.9 fold; Percentage Plasma Protein Binding, Dogs [10]: 99.4%; fraction unbound ([10]; dog plasma): < 0.01; activity against sub-panel of mutants bearing NRTI and PI mutations [11]: highly active; activity against EFV resistant viruses compared with EFV [11]: superior to EFV; inhibition at 10 µM ([12]; recombinant human CYP2D6 microsomal protein): 15.2%; Tmax ([13]; plasma, 5 mg/kg PO-Fed, M+F): 1.5 h; bioavailability ([13]; plasma, 5 mg/kg PO-Fed, M+F, IV 1 mg/kg): 4%; Tmax [13, 15]: 2.2 h; bioavailability [13, 15]: 23%"
